# Experimental data: patent US10538555B2, “Macrocyclic inhibitors of the PD-1/PD-L1 and CD80(B7-1)/PD-L1 protein/protein interactions” (BRISTOL-MYERS SQUIBB COMPANY, priority 2014, dated 2020)
# Where a SMILES comes first, the peptide text is derived from it. Bridges are numbered along the chain shown (N, C = ends). [ ]: non-standard residue; d: D form. ξ: configuration not given here. Trp(1-CH2COOH) = N[C@@H](Cc1cn(CC(=O)O)c2ccccc12)C(=O)O; Trp(βS-Me) = C[C@@H](c1c[nH]c2ccccc12)[C@H](N)C(=O)O; Phe(3,4,5-F3) = N[C@@H](Cc1cc(F)c(F)c(F)c1)C(=O)O; Phe(3,4-F2) = N[C@@H](Cc1ccc(F)c(F)c1)C(=O)O; NMePhe(4-F) = CN[C@@H](Cc1ccc(F)cc1)C(=O)O; d(cisHyp) = O=C(O)[C@H]1C[C@@H](O)CN1; Bta = N[C@@H](Cc1csc2ccccc12)C(=O)O; Hyp = O=C(O)[C@@H]1C[C@@H](O)CN1; NMeF = CN[C@@H](Cc1ccccc1)C(=O)O; NMeNle = CCCC[C@H](NC)C(=O)O; dPip = O=C(O)[C@H]1CCCCN1; NMeA = CN[C@@H](C)C(=O)O; Orn = NCCC[C@H](N)C(=O)O; Dab = NCC[C@H](N)C(=O)O; Dap = NC[C@H](N)C(=O)O; ξC = NC(CS)C(=O)O
# Target: T1, Human PD-L1/PD-1 (Homo sapiens, UniProt Q9NZQ7)
# T1 construct: TVMV protease cleavage site (C); made in house; host or cells: HEK293T cells
# T1 sequence (Q9NZQ7 with tags, fused parts or gaps): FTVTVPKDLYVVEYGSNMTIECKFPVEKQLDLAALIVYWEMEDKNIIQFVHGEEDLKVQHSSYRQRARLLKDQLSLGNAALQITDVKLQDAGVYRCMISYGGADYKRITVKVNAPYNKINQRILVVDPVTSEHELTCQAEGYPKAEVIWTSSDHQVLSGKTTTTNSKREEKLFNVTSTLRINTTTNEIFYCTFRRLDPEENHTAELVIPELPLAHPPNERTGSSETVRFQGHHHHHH
# Assay: HTRF Human PD-L1/PD-1 binding assay (PD-1-Ig/PD-L1-His)
# Conditions: PD-L1-His 10 nM, PD-1-Ig 20 nM; class symbol; read-out: HTRF Human PD-L1/PD-1 Binding Assay IC50 Range
# Summary of the method: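 Truncated Fc-fused human PD-1 (aa 25-167) at 20 nM and His-tagged PD-L1 (aa 18-239) at 10 nM final are used, with peptides preincubated 15 min with PD-L1. Detection uses europium-cryptate anti-Ig and APC anti-His antibodies; 665/620 nm ratio.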
row,IC50 [nM],SMILES
1,1 to 9.9,CCCC[C@H]1C(=O)N(C)[C@@H](CCCC)C(=O)N[C@@H](CC(C)C)C(=O)N[C@H](C(=O)NCC(N)=O)CSCC(=O)N[C@@H](Cc2ccc(OC)cc2)C(=O)N(C)[C@@H](C)C(=O)N[C@@H](CC(N)=O)C(=O)N2CCC[C@H]2C(=O)N[C@@H](Cc2c[nH]cn2)C(=O)N[C@@H](CCC(N)=O)C(=O)N2C[C@H](O)C[C@H]2C(=O)N[C@@H](Cc2c[nH]c3ccccc23)C(=O)N[C@@H](CO)C(=O)N[C@@H](Cc2cn(CC(=O)O)c3ccccc23)C(=O)N1C [Example 7141] ({CH2CO}-Y(Me)[NMeA]NPHQ[Hyp]WS[Trp(1-CH2COOH)][NMeNle][NMeNle]LCG-NH2; thioether N-14)
2,1 to 9.9,CCCC[C@H]1C(=O)N(C)[C@@H](CCCC)C(=O)N[C@@H](C)C(=O)N[C@H](C(=O)NCC(N)=O)CSCC(=O)N[C@@H](Cc2ccc(O)cc2)C(=O)N(C)[C@@H](C)C(=O)N[C@@H](CC(=O)O)C(=O)N2CCC[C@H]2C(=O)N[C@@H](Cc2cnc[nH]2)C(=O)N[C@@H](CCC(N)=O)C(=O)N2C[C@H](O)C[C@H]2C(=O)N[C@@H](Cc2c[nH]c3ccccc23)C(=O)N[C@@H](CCN)C(=O)N[C@@H](Cc2cn(CC(=O)O)c3ccccc23)C(=O)N1C [Example 6158] ({CH2CO}-Y[NMeA]DPHQ[Hyp]W[Dab][Trp(1-CH2COOH)][NMeNle][NMeNle]ACG-NH2; thioether N-14)
3,1 to 9.9,CCCC[C@H]1C(=O)N(C)[C@@H](CCCC)C(=O)N[C@@H](CC(C)C)C(=O)N[C@H](C(=O)NCC(N)=O)CSCC(=O)N[C@@H](Cc2ccc(O)cc2)C(=O)N(C)[C@@H](C)C(=O)N[C@@H](CC(=O)O)C(=O)N2CCC[C@H]2C(=O)N[C@@H](Cc2c[nH]cn2)C(=O)N[C@@H](CCCCNC(C)=O)C(=O)N2C[C@H](O)C[C@H]2C(=O)N[C@@H](Cc2c[nH]c3ccccc23)C(=O)N[C@@H](CCCCN)C(=O)N[C@@H](Cc2c[nH]c3ccccc23)C(=O)N1C [Example 5202] ({CH2CO}-Y[NMeA]DPHK(Ac)[Hyp]WKW[NMeNle][NMeNle]LCG-NH2; thioether N-14)
4,1 to 9.9,CCCC[C@H]1C(=O)N(C)[C@@H](CCCC)C(=O)N[C@@H](CN)C(=O)N[C@H](C(=O)NCC(N)=O)CSCC(=O)N[C@@H](Cc2ccc(O)cc2)C(=O)N(C)[C@@H](C)C(=O)N[C@@H](CC(=O)O)C(=O)N2CCC[C@H]2C(=O)N[C@@H](CN)C(=O)N[C@@H](CCC(=O)O)C(=O)N2C[C@H](O)C[C@H]2C(=O)N[C@@H](Cc2c[nH]c3ccccc23)C(=O)N[C@@H](CCN)C(=O)N[C@@H](Cc2cn(CC(=O)O)c3ccccc23)C(=O)N1C [Example 5176] ({CH2CO}-Y[NMeA]DP[Dap]E[Hyp]W[Dab][Trp(1-CH2COOH)][NMeNle][NMeNle][Dap]CG-NH2; thioether N-14)
5,10 to 99.9,CCCC[C@H]1C(=O)N(C)[C@@H](C)C(=O)N[C@@H](CCCNC(=N)N)C(=O)NC(C(=O)N[C@@H](CO)C(N)=O)CSCC(=O)N[C@@H](Cc2ccc(O)cc2)C(=O)N(C)[C@@H](C)C(=O)N[C@@H](CC(N)=O)C(=O)N2CCC[C@H]2C(=O)N[C@@H](CO)C(=O)N[C@H](CC(C)C)C(=O)N2CCC[C@H]2C(=O)N[C@@H](Cc2c[nH]c3ccccc23)C(=O)N[C@@H](CO)C(=O)N[C@@H](Cc2csc3ccccc23)C(=O)N1C (stereo partly drawn) [Example 9122] ({CH2CO}-Y[NMeA]NPS[dL]PWS[Bta][NMeNle][NMeA]R[ξC]S-NH2; thioether N-14)
6,1 to 9.9,CCCC[C@H]1C(=O)N(C)[C@@H](CCCC)C(=O)N[C@@H](CCC(=O)O)C(=O)N[C@H](C(=O)NCC(N)=O)CSCC(=O)N[C@@H](Cc2ccc(O)cc2)C(=O)N(C)[C@@H](C)C(=O)N[C@@H](CC(=O)O)C(=O)N2CCC[C@H]2C(=O)N[C@@H](CN)C(=O)N[C@@H](CCC(N)=O)C(=O)N2C[C@H](O)C[C@H]2C(=O)N[C@@H](Cc2c[nH]c3ccccc23)C(=O)N[C@@H](CO)C(=O)N[C@@H](Cc2c[nH]c3ccccc23)C(=O)N1C [Example 5246] ({CH2CO}-Y[NMeA]DP[Dap]Q[Hyp]WSW[NMeNle][NMeNle]ECG-NH2; thioether N-14)
7,1 to 9.9,CCCC[C@H]1C(=O)N(C)[C@@H](CCCC)C(=O)N[C@@H](CCC(=O)O)C(=O)N[C@H](C(=O)NCC(N)=O)CSCC(=O)N[C@@H](Cc2ccc(O)cc2)C(=O)N(C)[C@@H](C)C(=O)N[C@@H](CC(=O)O)C(=O)N2CCC[C@H]2C(=O)N[C@@H](CO)C(=O)N[C@@H](CCC(N)=O)C(=O)N2C[C@H](O)C[C@H]2C(=O)N[C@@H](Cc2c[nH]c3ccccc23)C(=O)N[C@@H](CCN)C(=O)N[C@@H](Cc2c[nH]c3ccccc23)C(=O)N1C [Example 5221] ({CH2CO}-Y[NMeA]DPSQ[Hyp]W[Dab]W[NMeNle][NMeNle]ECG-NH2; thioether N-14)
8,1 to 9.9,CCCC[C@H]1C(=O)N(C)[C@@H](CCCC)C(=O)N[C@@H](CCCN)C(=O)N[C@H](C(=O)NCC(N)=O)CSCC(=O)N[C@@H](Cc2ccc(OC)cc2)C(=O)N(C)[C@@H](C)C(=O)N[C@@H](CC(=O)O)C(=O)N2CCC[C@H]2C(=O)N[C@@H](CN)C(=O)N[C@@H](CCC(=O)O)C(=O)N2C[C@H](O)C[C@H]2C(=O)N[C@@H](Cc2c[nH]c3ccccc23)C(=O)N[C@@H](CC(=O)O)C(=O)N[C@@H](Cc2c[nH]c3ccccc23)C(=O)N1C [Example 7101] ({CH2CO}-Y(Me)[NMeA]DP[Dap]E[Hyp]WDW[NMeNle][NMeNle][Orn]CG-NH2; thioether N-14)

# The remaining lines, values behind:
row,SMILES,IC50 [nM]
1,"CCCC[C@H]1C(=O)N2CCC[C@@H]2C(=O)N[C@@H](CC(=O)O)C(=O)N[C@@H](C(C)C)C(=O)N(C)[C@@H](Cc2ccccc2)C(=O)N[C@@H](CCC(=O)O)C(=O)N2CCCC[C@@H]2C(=O)N[C@@H](Cc2c[nH]c3ccccc23)C(=O)N[C@@H](Cc2ccc(O)cc2)C(=O)N[C@@H](CCCCN)C(=O)N[C@H](C(=O)NCC(N)=O)CSCC(=O)N[C@@H](Cc2cc(F)c(F)c(F)c2)C(=O)N(C)[C@@H](Cc2ccc(F)cc2)C(=O)N1C [Example 10564] ({CH2CO}-[Phe(3,4,5-F3)][NMePhe(4-F)][NMeNle][dP]DV[NMeF]E[dPip]WYKCG-NH2; thioether N-13)",1 to 9.9
2,CCCC[C@H]1C(=O)N2CCC[C@@H]2C(=O)N[C@@H](CC(=O)O)C(=O)N[C@@H](C(C)C)C(=O)N(C)[C@@H](Cc2ccccc2)C(=O)N[C@@H](Cc2ccc(O)cc2)C(=O)N2CCC[C@@H]2C(=O)N[C@@H]([C@@H](C)c2c[nH]c3ccccc23)C(=O)N[C@@H](Cc2ccc(O)cc2)C(=O)N[C@@H](CC(C)C)C(=O)N[C@H](C(=O)NCC(N)=O)CSCC(=O)N[C@@H](Cc2ccccc2)C(=O)N(C)[C@@H](Cc2ccccc2)C(=O)N1C [Example 10535] ({CH2CO}-F[NMeF][NMeNle][dP]DV[NMeF]Y[dP][Trp(βS-Me)]YLCG-NH2; thioether N-13),1 to 9.9
3,"CCCC[C@H]1C(=O)N2C[C@H](O)C[C@@H]2C(=O)N[C@@H](CC(=O)O)C(=O)N[C@@H](C(C)C)C(=O)N(C)[C@@H](Cc2ccccc2)C(=O)N[C@@H](Cc2ccc(O)cc2)C(=O)N2C[C@H](O)C[C@@H]2C(=O)N[C@@H](Cc2c[nH]c3ccccc23)C(=O)N[C@@H](Cc2ccc(O)cc2)C(=O)N[C@@H](CN)C(=O)N[C@H](C(=O)NCC(N)=O)CSCC(=O)N[C@@H](Cc2cc(F)c(F)c(F)c2)C(=O)N(C)[C@@H](Cc2ccccc2)C(=O)N1C [Example 9325] ({CH2CO}-[Phe(3,4,5-F3)][NMeF][NMeNle][d(cisHyp)]DV[NMeF]Y[d(cisHyp)]WY[Dap]CG-NH2; thioether N-13)",1 to 9.9
4,CCCC[C@H]1C(=O)N(C)[C@@H](CCCC)C(=O)N[C@@H](CCC(=O)O)C(=O)N[C@H](C(=O)NCC(N)=O)CSCC(=O)N[C@@H](Cc2ccc(O)cc2)C(=O)N(C)[C@@H](C)C(=O)N[C@@H](CC(N)=O)C(=O)N2CCC[C@H]2C(=O)N[C@@H](CO)C(=O)N[C@@H](CCC(N)=O)C(=O)N2C[C@H](O)C[C@H]2C(=O)N[C@@H](Cc2c[nH]c3ccccc23)C(=O)N[C@@H](CCC(=O)O)C(=O)N[C@@H](Cc2c[nH]c3ccccc23)C(=O)N1C [Example 5240] ({CH2CO}-Y[NMeA]NPSQ[Hyp]WEW[NMeNle][NMeNle]ECG-NH2; thioether N-14),1 to 9.9
5,"CCCC[C@H]1C(=O)N2C[C@H](O)C[C@@H]2C(=O)N[C@@H](CC(=O)O)C(=O)N[C@@H](C(C)C)C(=O)N(C)[C@@H](Cc2ccccc2)C(=O)N[C@@H](CC(=O)O)C(=O)N2C[C@H](O)C[C@@H]2C(=O)N[C@@H](Cc2c[nH]c3ccccc23)C(=O)N[C@@H](Cc2ccc(O)cc2)C(=O)N[C@@H](CC(C)C)C(=O)N[C@H](C(=O)NCC(N)=O)CSCC(=O)N[C@@H](Cc2ccc(F)c(F)c2)C(=O)N(C)[C@@H](Cc2ccccc2)C(=O)N1C [Example 9289] ({CH2CO}-[Phe(3,4-F2)][NMeF][NMeNle][d(cisHyp)]DV[NMeF]D[d(cisHyp)]WYLCG-NH2; thioether N-13)",1 to 9.9
6,CCCC[C@H]1C(=O)N(C)[C@@H](CCCC)C(=O)N[C@@H](CCC(=O)O)C(=O)NC(C(=O)NCC(N)=O)CSCC(=O)N[C@@H](Cc2ccc(O)cc2)C(=O)N(C)[C@@H](C)C(=O)N[C@@H](CC(N)=O)C(=O)N2CCC[C@H]2C(=O)N[C@@H](CC(N)=O)C(=O)N[C@@H](CC(C)C)C(=O)N2CCC[C@H]2C(=O)N[C@@H](Cc2c[nH]c3ccccc23)C(=O)N[C@@H](CN)C(=O)N[C@@H](Cc2c[nH]c3ccccc23)C(=O)N1C (stereo partly drawn) [Example 9176] ({CH2CO}-Y[NMeA]NPNLPW[Dap]W[NMeNle][NMeNle]E[ξC]G-NH2; thioether N-14),100 to 990

# Same assay, conditions: PD-L1-His 10 nM, PD-1-Ig 20 nM; read-out: HTRF Human PD-L1/PD-1 Binding Assay IC50
row,IC50 [nM],SMILES
1,1000,CCCC[C@H]1C(=O)N(C)[C@@H](CCCC)C(=O)N[C@@H](CCCN)C(=O)N[C@H](C(=O)NCC(N)=O)CSCC(=O)N[C@@H](Cc2ccc(O)cc2)C(=O)N2CCC[C@]2(C)C(=O)N[C@@H](CC(N)=O)C(=O)N2CCCC2C(=O)N[C@@H](Cc2cnc[nH]2)C(=O)N[C@@H](CC(C)C)C(=O)N2C[C@H](O)C[C@H]2C(=O)N[C@@H](Cc2c[nH]c3ccccc23)C(=O)N[C@@H](CO)C(=O)N[C@@H](Cc2c[nH]c3ccccc23)C(=O)N1C (stereo partly drawn) [Example 1241]
